Test results from patent US20190233287A1, “Methods To Prepare Haloamines Using At Least One Solid Reactant And Products Made Therefrom” (Buckman Laboratories International, Inc., priority 2018, published 2019).

Tests used:
[1] = Chlorate ion concentration by Ion Chromatography; type: physicochemical; details: aqueous solutions of the Dantochlor product (1.5-72 ppm); detection limit 0.5 ppm
Experimental: The chlorate ion concentration was also analyzed for various aqueous solutions of the Dantochlor product (1.5-72 ppm); chlorate ion was not detected above the method's detection limit of 0.5 ppm.

[2] = Chlorine content, MCA content and pH of solutions, measured at once and again after 1 hour; type: physicochemical; details: 0.1 wt % Dantochlor aqueous solution, pH 11.2, measured instantly
Experimental: In this experiment the chlorine-releaser was granular Dantochlor (DCDMH), and the ammonium source was BUSPERSE 2454 (already in the form of an aqueous ammonium sulfate). A one liter aqueous solution containing 0.1 wt % Dantochlor was prepared. This aqueous solution was adjusted to a pH of 11.2 using NaOH (50%).
A molar equivalent amount of BUSPERSE 2454 was ±0.7 ml for a one liter solution. A 30% molar overdosage was used and thus, 1 ml of BUSPERSE 2454 was added to the aqueous solution of Dantochlor.

[3] = weak acid; cited from earlier work

| SMILES | chlorate ion concentration [1] [ppm] | Free Cl2 [2] [ppm Cl2] | Total Cl2 [2] [ppm Cl2] | pKa [3] |
| --- | --- | --- | --- | --- |
| CC1(C)C(=O)N(Cl)C(=O)N1Cl [Dantochlor, dichlorodimethylhydantoin] | < 0.5 | 274 | 600 |  |
| OCl [HOCl, hypochlorous acid] |  |  |  | 7.5 |
